Laboratory results taken from patent US11554182B2, “Macrocyclic complexes of alpha-emitting radionuclides and their use in targeted radiotherapy of cancer” (CORNELL UNIVERSITY, priority 2017, dated 2023).

Assay: In vivo biodistribution of ^225Ac complexes after intravenous injection
Parameters: species or system C57BL/6 mice
Protocol: In Vivo Biodistribution of ^225Ac Complexes of Macropa and DOTA. All experiments were approved by the Institutional Animal Care Committee (IACC) of the University of British Columbia and were performed in accordance with the Canadian Council on Animal Care Guidelines. A total of 9 female C57BL/6 mice (6-8 weeks old, 20-25 g) were used for the biodistribution study of each radiometal complex, n=3 for each time point.
Macropa (100 μL of a 1 mg/mL solution in NH4OAc) was diluted with 387 μL of NH4OAc (1 M, pH 7), and an aliquot (203 μL) of ^225Ac(NO3)3 (˜157 kBq) was then added; the pH of this solution was adjusted to 6.5-7 by the addition of 1 M NaOH (210 μL, trace metal grade). After 5 min at ambient temperature, the reaction solution was analyzed by TLC (0.4 M pH 4 sodium citrate as the eluent), which confirmed >95% radiochemical yield. The reaction was allowed to proceed overnight, and the radiochemical yield was again confirmed to be >95% the following morning. At this time, mice were anesthetized by 2% isoflurane, and approximately 100 μL (10-15 kBq) of the [^225Ac(macropa)]^+ complex were injected into the tail vein of each mouse. After injection, mice were allowed to recover and roam freely in their cages, and were euthanized by CO2 inhalation at 15 min, 1 h, or 5 h (n=3 at each time point) post-injection. Blood was collected by cardiac puncture and placed into an appropriate test tube for scintillation counting. Tissues collected included heart, liver, kidneys, lungs, small intestine, large intestine, brain, bladder, spleen, stomach, pancreas, bone, thyroid, tail, urine, and feces. Tissues were weighed and then counted with a calibrated gamma counter (Packard, Cobra II model 5002) using three energy windows: 60-120 keV (window A), 180-260 keV (window B), and 400-480 keV (window C). Counting was performed both immediately after sacrifice and after 7 days; counts were decay corrected from the time of injection and then converted to the percentage of injected dose (% ID) per gram of tissue (% ID/g). No differences were noted between the data; therefore, the biodistributions are reported using the data acquired immediately using window A.
The biodistribution studies of [^225Ac(DOTA)]^− and ^225Ac(NO3)3 were carried out as described above for [^225Ac(macropa)]^+, with the following modifications. [^225Ac(DOTA)]^− was prepared by adding ^225Ac(NO3)3 (338 μL, 1.1 MBq) to a solution of DOTA (100 μg, 20 mg/mL in H2O) in NH4OAc (467 μL, 0.15 M, pH 7). The pH of the solution was adjusted to 7 using NH4OAc (150 μL, 1 M, pH 7) and the solution was heated at 85° C. for 45 min. RCY>99% was confirmed by TLC as described above. [^225Ac(DOTA)]^− was diluted with saline to a final concentration of 0.05 MBq/100 μL, and 100 μL were injected into each mouse. ^225Ac(NO3)3 (˜58 μL, 0.4 MBq) was diluted and injected in the same manner as [^225Ac(DOTA)]^−. One mouse that was to be euthanized at the 5 h time point in the [^225Ac(DOTA)]^− study died shortly after injection. In the same manner, one mouse that was to be euthanized at the 1 h time point in the ^225Ac(NO3)3 study died.
The in vivo stability [^225Ac(macropa)]^+ was examined by comparing its biodistribution to those of ^225Ac(NO3)3 and [^225Ac(DOTA)]^−. C57BL/6 mice were injected via tail vein with 10-50 kBq of each radiometal complex and were sacrificed after 15 min, 1 h, or 5 h. The amount of ^225Ac retained in each organ was quantified by gamma counting and reported as the percent of injected dose per gram of tissue (% ID/g). The results of these studies are compiled in Tables 1-3. Inadequate stability of an ^225Ac complex leading to the loss of radioisotope in vivo is manifested by the accumulation of ^225Ac in the liver, spleen, and bone of mice.^[11,12,32] […] The biodistribution profile of [^225Ac(macropa)]^+ (FIG. 3B) differs markedly from that of ^225Ac(NO3)3. […]

[1] = 15 min after i.v. injection, energy window A (60-120 keV)
[2] = 15 min after i.v. injection, energy window B (180-260 keV)
[3] = 15 min after i.v. injection, energy window C (400-480 keV)
[4] = 1 h after i.v. injection, energy window A (60-120 keV)
[5] = 1 h after i.v. injection, energy window B (180-260 keV)

SMILES: O=C([O-])c1cccc(CN2CCOCCOCCN(Cc3cccc(C(=O)[O-])n3)CCOCCOCC2)n1.[225Ac+3] [[^225Ac(macropa)]^+]
- % ID/g in bladder [1]: 46.74 % ID/g
- % ID/g in blood [1]: 5.11 % ID/g
- % ID/g in bone (femur + joint) [1]: 2.52 % ID/g
- % ID/g in brain [1]: 0.26 % ID/g
- % ID/g in feces [1]: 0.91 % ID/g
- % ID/g in heart [1]: 2.19 % ID/g
- % ID/g in kidneys [1]: 27.55 % ID/g
- % ID/g in large intestines [1]: 2.40 % ID/g
- % ID/g in liver [1]: 2.28 % ID/g
- % ID/g in lungs [1]: 5.98 % ID/g
- % ID/g in pancreas [1]: 1.46 % ID/g
- % ID/g in small intestines [1]: 2.64 % ID/g
- % ID/g in spleen [1]: 2.52 % ID/g
- % ID/g in stomach [1]: 2.97 % ID/g
- % ID/g in tail [1]: 8.84 % ID/g
- % ID/g in thyroids [1]: 28.23 % ID/g
- % ID/g in urine [1]: 1378.82 % ID/g
- % ID/g in bladder [2]: 47.64 % ID/g
- % ID/g in blood [2]: 5.23 % ID/g
- % ID/g in bone (femur + joint) [2]: 2.69 % ID/g
- % ID/g in brain [2]: 0.23 % ID/g
- % ID/g in feces [2]: 1.04 % ID/g
- % ID/g in heart [2]: 2.39 % ID/g
- % ID/g in kidneys [2]: 27.86 % ID/g
- % ID/g in large intestines [2]: 2.53 % ID/g
- % ID/g in liver [2]: 2.17 % ID/g
- % ID/g in lungs [2]: 5.83 % ID/g
- % ID/g in pancreas [2]: 1.63 % ID/g
- % ID/g in small intestines [2]: 2.59 % ID/g
- % ID/g in spleen [2]: 2.55 % ID/g
- % ID/g in stomach [2]: 3.29 % ID/g
- % ID/g in tail [2]: 9.39 % ID/g
- % ID/g in thyroids [2]: −2.22 % ID/g
- % ID/g in urine [2]: 1541.60 % ID/g
- % ID/g in bladder [3]: 64.68 % ID/g
- % ID/g in blood [3]: 6.49 % ID/g
- % ID/g in bone (femur + joint) [3]: 3.74 % ID/g
- % ID/g in brain [3]: 0.17 % ID/g
- % ID/g in feces [3]: 1.26 % ID/g
- % ID/g in heart [3]: 2.87 % ID/g
- % ID/g in kidneys [3]: 33.46 % ID/g
- % ID/g in large intestines [3]: 3.02 % ID/g
- % ID/g in liver [3]: 2.72 % ID/g
- % ID/g in lungs [3]: 7.55 % ID/g
- % ID/g in pancreas [3]: 3.00 % ID/g
- % ID/g in small intestines [3]: 3.46 % ID/g
- % ID/g in spleen [3]: 3.79 % ID/g
- % ID/g in stomach [3]: 3.45 % ID/g
- % ID/g in tail [3]: 11.75 % ID/g
- % ID/g in thyroids [3]: −6.46 % ID/g
- % ID/g in urine [3]: 2387.66 % ID/g
- % ID/g in bladder [4]: 6.23 % ID/g
- % ID/g in blood [4]: 0.40 % ID/g
- % ID/g in bone (femur + joint) [4]: 0.31 % ID/g
- % ID/g in brain [4]: 0.12 % ID/g
- % ID/g in feces [4]: 0.28 % ID/g
- % ID/g in heart [4]: 0.31 % ID/g
- % ID/g in kidneys [4]: 13.36 % ID/g
- % ID/g in large intestines [4]: 0.36 % ID/g
- % ID/g in liver [4]: 0.75 % ID/g
- % ID/g in lungs [4]: 0.51 % ID/g
- % ID/g in pancreas [4]: 0.19 % ID/g
- % ID/g in small intestines [4]: 1.10 % ID/g
- % ID/g in spleen [4]: 0.51 % ID/g
- % ID/g in stomach [4]: 0.41 % ID/g
- % ID/g in tail [4]: 1.82 % ID/g
- % ID/g in thyroids [4]: 3.18 % ID/g
- % ID/g in urine [4]: 489.11 % ID/g
- % ID/g in bladder [5]: 5.92 % ID/g
- % ID/g in blood [5]: 0.39 % ID/g
- % ID/g in bone (femur + joint) [5]: 0.17 % ID/g
- % ID/g in brain [5]: 0.12 % ID/g
- % ID/g in feces [5]: 0.27 % ID/g
- % ID/g in heart [5]: 0.20 % ID/g
- % ID/g in kidneys [5]: 12.97 % ID/g
- % ID/g in large intestines [5]: 0.22 % ID/g
- % ID/g in liver [5]: 0.70 % ID/g
- % ID/g in lungs [5]: 0.54 % ID/g
